Experiments:
[1] = molecular target: T1, Amine oxidase [flavin-containing] A (Rattus norvegicus, UniProt P21396); assay: Inhibition of MAOA in Sprague-Dawley rat brain mitochondria using kynuramine substrate by fluorimetry
T1 sequence (P21396 whole entry): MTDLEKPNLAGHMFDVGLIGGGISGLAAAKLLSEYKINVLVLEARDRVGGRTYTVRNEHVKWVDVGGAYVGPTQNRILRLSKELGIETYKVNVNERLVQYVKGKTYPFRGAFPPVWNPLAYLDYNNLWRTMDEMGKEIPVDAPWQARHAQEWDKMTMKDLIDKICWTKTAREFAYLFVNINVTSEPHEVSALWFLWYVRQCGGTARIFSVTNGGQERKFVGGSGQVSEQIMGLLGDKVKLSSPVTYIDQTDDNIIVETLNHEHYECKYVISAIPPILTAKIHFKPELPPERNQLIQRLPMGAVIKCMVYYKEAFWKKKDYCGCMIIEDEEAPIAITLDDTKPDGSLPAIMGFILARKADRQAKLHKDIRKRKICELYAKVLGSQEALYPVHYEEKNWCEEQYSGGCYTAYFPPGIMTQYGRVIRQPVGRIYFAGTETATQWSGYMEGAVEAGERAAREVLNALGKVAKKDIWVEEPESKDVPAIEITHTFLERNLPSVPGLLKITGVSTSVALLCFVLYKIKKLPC

[2] = molecular target: T2, Amine oxidase [flavin-containing] B (Rattus norvegicus, UniProt P19643); assay: Inhibition of MAOB in Sprague-Dawley rat brain mitochondria using kynuramine substrate by fluorimetry
T2 sequence (P19643 whole entry): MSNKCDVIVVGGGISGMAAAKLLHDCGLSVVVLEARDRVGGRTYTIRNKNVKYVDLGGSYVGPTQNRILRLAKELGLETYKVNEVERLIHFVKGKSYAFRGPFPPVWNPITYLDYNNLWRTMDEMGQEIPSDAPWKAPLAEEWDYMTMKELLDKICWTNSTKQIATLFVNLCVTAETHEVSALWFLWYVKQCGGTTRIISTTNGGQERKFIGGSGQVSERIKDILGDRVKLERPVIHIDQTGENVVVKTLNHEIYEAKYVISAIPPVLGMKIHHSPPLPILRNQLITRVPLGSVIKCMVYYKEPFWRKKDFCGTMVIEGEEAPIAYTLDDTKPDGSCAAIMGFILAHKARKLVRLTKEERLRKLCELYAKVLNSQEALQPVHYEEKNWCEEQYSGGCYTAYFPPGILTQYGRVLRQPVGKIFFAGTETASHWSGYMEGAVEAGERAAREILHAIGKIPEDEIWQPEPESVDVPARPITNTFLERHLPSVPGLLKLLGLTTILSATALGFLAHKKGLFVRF

Row | Structure (SMILES) | IC50 [1] [µM] | IC50 [2] [µM]
1 | O=C(NCCN1CCOCC1)c1cnc(O)c(Cl)c1 | 0.045 | 26
2 | O=C(NCCN1CCOCC1)c1ccc(Cl)cc1 [MOCLOBEMIDE] | – | > 100
3 | O=C(NCCCN1CCOCC1)c1cccnc1Br | 35 | 1.9
4 | O=C(NCCCN1CCOCC1)c1cnc(Cl)c(Cl)c1 | 0.1 | 45
5 | O=C(NCCN1CCOCC1)c1ccc(F)nc1 | 15 | > 100
6 | O=C(NCCN1CCOCC1)c1cccnc1Cl | 2.6 | 1.8
7 | O=C(NCCCN1CCOCC1)c1ccc(F)nc1 | 80 | > 100
8 | O=C(NCCCN1CCOCC1)c1cccnc1Cl | 9.4 | 6.5
9 | O=C(NCCN1CCOCC1)c1ccc(Cl)nc1 | 0.18 | 34
10 | O=C(NCCCN1CCOCC1)c1cccnc1 | > 100 | > 100
11 | Cc1ccc(C(=O)NCCN2CCOCC2)c(Cl)n1 | 28 | > 100
12 | O=C(NCCN1CCOCC1)c1cccnc1Br | 8.5 | 0.32
13 | O=C(NCCCN1CCOCC1)c1ccc(O)nc1 | 56 | > 100
14 | O=C(NCCN1CCOCC1)c1cnccc1Cl | 0.75 | 74
15 | O=C(NCCCN1CCOCC1)c1ccc(Cl)nc1 | 0.38 | 75
16 | O=C(NCCN1CCOCC1)c1cnc(Cl)c(Cl)c1 | 0.084 | 48

More lines, now with the values ahead:

Row | IC50 [1] [µM] | IC50 [2] [µM] | Structure (SMILES)
17 | > 100 | > 100 | O=C(NCCCN1CCOCC1)c1ccc[nH]c1=O
18 | 12 | 82 | O=C(NCCCN1CCOCC1)c1c[nH]c(=O)c(Cl)c1
19 | > 100 | > 100 | Cc1ccc(C(=O)NCCCN2CCOCC2)cn1
20 | > 100 | > 100 | Cc1ccc(C(=O)NCCCN2CCOCC2)c(Cl)n1
21 | 68 | > 100 | O=C(NCCN1CCOCC1)c1cccnc1
22 | 23 | 65 | O=C(NCCCN1CCOCC1)c1cncc(Br)c1
23 | 0.43 | > 100 | O=C(NCCN1CCOCC1)c1ccc(=O)[nH]c1
24 | 86 | > 100 | Cc1ccc(C(=O)NCCN2CCOCC2)cn1
25 | 7.5 | 53 | O=C(NCCCN1CCOCC1)c1cnccc1Cl
26 | 26 | 55 | O=C(NCCN1CCOCC1)c1cncc(Br)c1
27 | 45 | > 100 | O=C(NCCN1CCOCC1)c1cccnc1O

Reference: ChEMBL document CHEMBL1156928, “Design of novel nicotinamides as potent and selective monoamine oxidase a inhibitors” (Bioorg Med Chem, 2010)
